Values belong to the compound of their own block, whether it stands above or below them. The source made the active and inactive calls. The calls are words filed in the database; no cut-off is given here.
Tests used:
Heat shock protein HSP90 [1] = biological target: T1, Heat shock protein HSP90 (Homo sapiens, UniProt P07900+P08238); assay: Inhibition of HSP90 in human A549 cells assessed as downregulation of AKT protein expression after 24 hrs by Western blot analysis; type: cell-based
Heat shock protein HSP90 [2] = biological target: T1, Heat shock protein HSP90; assay: Inhibition of HSP90 in human HCT116 cells assessed as downregulation of AKT protein expression after 24 hrs by Western blot analysis; type: cell-based
[3] = biological target: T2, DNA topoisomerase 1 (Homo sapiens) (UniProt P11387); assay: Inhibition of topoisomerase 1 in human HCT116 cells assessed as increase in phosphorylated KAP1 expression at 0.2 to 5 uM after 24 hrs by Western blot analysis; type: cell-based
T2 sequence (whole entry): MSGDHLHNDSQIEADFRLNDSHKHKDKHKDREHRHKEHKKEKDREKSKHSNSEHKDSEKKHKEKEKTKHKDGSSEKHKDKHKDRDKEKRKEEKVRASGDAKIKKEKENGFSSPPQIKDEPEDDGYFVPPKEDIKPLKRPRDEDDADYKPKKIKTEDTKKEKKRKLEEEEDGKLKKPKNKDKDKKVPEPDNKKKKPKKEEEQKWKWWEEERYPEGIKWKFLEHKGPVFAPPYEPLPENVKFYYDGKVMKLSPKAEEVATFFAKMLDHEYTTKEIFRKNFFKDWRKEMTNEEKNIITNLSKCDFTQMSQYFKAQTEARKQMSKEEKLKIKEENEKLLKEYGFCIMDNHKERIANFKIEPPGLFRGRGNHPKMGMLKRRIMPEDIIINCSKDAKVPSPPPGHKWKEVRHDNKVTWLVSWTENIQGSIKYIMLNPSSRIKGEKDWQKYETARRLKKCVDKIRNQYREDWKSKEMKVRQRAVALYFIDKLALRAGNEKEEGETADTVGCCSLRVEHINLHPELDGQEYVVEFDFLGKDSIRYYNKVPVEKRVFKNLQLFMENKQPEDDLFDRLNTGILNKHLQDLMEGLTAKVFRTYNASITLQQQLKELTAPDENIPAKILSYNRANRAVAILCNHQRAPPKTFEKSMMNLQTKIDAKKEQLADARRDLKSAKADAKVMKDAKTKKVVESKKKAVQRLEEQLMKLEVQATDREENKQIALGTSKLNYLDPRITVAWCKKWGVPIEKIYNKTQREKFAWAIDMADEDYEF

[4] = Toxicity in spleen of mouse xenografted with human Capan1 cells assessed as pathological changes at 50 mg/kg, iv for every 2 days measured at 2 hrs post last dose by H and E staining based analysis; type: organism-based; settings: in vivo
[5] = Stability of compound in PBS buffer assessed as drug degradation at 50 uM at pH 7.4 measured after 12 hrs by HPLC analysis; type: physicochemical; settings: read-out: Drug degradation
[6] = biological target: T2, DNA topoisomerase 1 (Homo sapiens); assay: Inhibition of topoisomerase 1 in human A549 cells assessed as increase in phosphorylated KAP1 expression after 24 hrs by Western blot analysis; type: cell-based
Heat shock protein HSP90 [7] = biological target: T1, Heat shock protein HSP90; assay: Inhibition of HSP90 in human HCT116 cells assessed as upregulation of HSP70 expression at 0.008 to 1 uM after 24 hrs by Western blot analysis; type: cell-based
Heat shock protein HSP90 [8] = biological target: T1, Heat shock protein HSP90; assay: Inhibition of HSP90 in human HCT116 cells assessed as downregulation of Akt expression at 0.008 to 1 uM after 24 hrs by Western blot analysis; type: cell-based
CAPAN-1 [9] = assay: Antitumor activity against human Capan1 cells xenografted in mouse assessed as reduction in tumor weight at 50 mg/kg, iv for every 2 days and measured twice per week by caliper method; type: functional, organism-based
[10] = Toxicity in mouse xenografted with human Capan1 cells assessed as increase in body weight at 50 mg/kg, iv for every 2 days; type: organism-based; settings: in vivo, 48 h
Mus musculus [11] = assay: In vivo inhibition of HSP90 in mouse xenografted with human Capan1 cells assessed as increase in HSP70 protein expression at 50 mg/kg, iv for every 2 days measured at 2 hrs post last dose by Western blot analysis; type: functional, organism-based
[12] = Toxicity in kidney of mouse xenografted with human Capan1 cells assessed as pathological changes at 50 mg/kg, iv for every 2 days measured at 2 hrs post last dose by H and E staining based analysis; type: organism-based; settings: in vivo
[13] = Drug uptake in mouse plasma xenografted with human Capan1 cells at 50 mg/kg, iv after 30 mins by LC-MS/MS analysis; type: ADME, organism-based; settings: in vivo, 0.5 h
[14] = Prodrug release in mouse plasma xenografted with human HCT116 cells assessed as increase in 7-ethyl-10-hydroxycamptothecin level at 50 mg/kg, iv administered as single dose and measured after 30 mins to 72 hrs by LC-MS/MS analysis; type: ADME, organism-based; settings: in vivo
[15] = Drug uptake in tumor of mouse xenografted with human HCT116 cells at 50 mg/kg, iv administered as single dose after 1 hr by LC-MS/MS analysis; type: ADME, organism-based, Neoplasm; settings: in vivo
[16] = Prodrug release in human A549 cells assessed as increase in 7-ethyl-10-hydroxycamptothecin level at 5 uM after 1 to 12 hrs by LC-MS/MS analysis; type: ADME, cell-based; settings: a549, 5 µM
CAPAN-1 [17] = assay: Antitumor activity against human Capan1 cells xenografted in mouse assessed as reduction in tumor volume at 50 mg/kg, iv for every 2 days and measured twice per week by microcaliper method relative to control; type: functional
CAPAN-1 [18] = assay: Antitumor activity against human Capan1 cells xenografted in mouse assessed as reduction in Ki67 expression at 50 mg/kg, iv for every 2 days measured at 2 hrs post last dose by Ki67 staining based immunohistochemical analysis; type: functional, organism-based
[19] = Toxicity in heart of mouse xenografted with human Capan1 cells assessed as pathological changes at 50 mg/kg, iv for every 2 days measured at 2 hrs post last dose by H and E staining based analysis; type: organism-based; settings: in vivo
CAPAN-1 [20] = assay: Antitumor activity against human Capan1 cells xenografted in mouse assessed as tumor cells with nuclear lysis at 36 mg/kg, iv for every 2 days measured at 2 hrs post last dose by H and E staining based analysis; type: functional, organism-based
[21] = Drug uptake in mouse plasma xenografted with human HCT116 cells assessed as increase in drug level with longer half life at 50 mg/kg, iv administered as single dose and measured after 30 mins to 72 hrs by LC-MS/MS analysis; type: ADME, organism-based; settings: in vivo
Mus musculus [22] = assay: Down regulation of topoisomerase 1 expression in mouse xenografted with human Capan1 cells at 50 mg/kg, iv for every 2 days measured at 2 hrs post last dose by Western blot analysis; type: functional, organism-based
[23] = biological target: T2, DNA topoisomerase 1 (Homo sapiens); assay: Inhibition of topoisomerase 1 in human HCT116 cells assessed as increase in phosphorylated KAP1 expression after 24 hrs by Western blot analysis; type: cell-based
[24] = Toxicity in liver of mouse xenografted with human Capan1 cells assessed as pathological changes at 50 mg/kg, iv for every 2 days measured at 2 hrs post last dose by H and E staining based analysis; type: organism-based; settings: in vivo
Heat shock protein HSP90 [25] = biological target: T1, Heat shock protein HSP90; assay: Inhibition of HSP90 in human A549 cells assessed as upregulation of HSP70 expression at 0.008 to 1 uM after 24 hrs by Western blot analysis; type: cell-based
[26] = Drug uptake in tumor of mouse xenografted with human HCT116 cells at 50 mg/kg, iv administered as single dose measured up to 72 hrs by LC-MS/MS analysis; type: ADME, organism-based, Neoplasm; settings: in vivo

Compound: CCc1c2c(nc3ccc(OC(=O)N4CCC(NC(=O)c5noc(-c6cc(C(C)C)c(O)cc6O)c5-c5ccc(CN6CCOCC6)cc5)CC4)cc13)-c1cc3c(c(=O)n1C2)COC(=O)[C@]3(O)CC
inhibition (Heat shock protein HSP90 [1]): Dose-dependent effect | inhibition (Heat shock protein HSP90 [2]): Dose-dependent effect | inhibition [3]: inactive

degraded at 12 h, 50 µM [5]: 75% | inhibition [6]: Dose-dependent effect | inhibition (Heat shock protein HSP90 [7]): inactive | inhibition (Heat shock protein HSP90 [8]): inactive | Drug uptake [13]: Active | Drug metabolism [14]: Metabolite_Detected | Drug uptake [15]: Not Active | Drug metabolism [16]: Metabolite_Detected | Drug uptake [21]: Active | inhibition [23]: Dose-dependent effect | inhibition (Heat shock protein HSP90 [25]): inactive | Drug uptake [26]: Active
Compound: CCc1c2c(nc3ccc(O)cc13)-c1cc3c(c(=O)n1C2)COC(=O)[C@@]3(CC)OC(=O)CNC(=O)c1noc(-c2cc(C(C)C)c(O)cc2O)c1-c1ccc(CN2CCOCC2)cc1
Activity [4]: Toxic | Activity (CAPAN-1 [9]): Active | Activity [10]: 10% | inhibition (Mus musculus [11]): Active | Activity [12]: Non-Toxic | T/C (CAPAN-1 [17]): 1.86% | Activity (CAPAN-1 [18]): Active | Activity [19]: Non-Toxic | Activity (CAPAN-1 [20]): Active | inhibition (Mus musculus [22]): Active | Activity [24]: Non-Toxic

— ChEMBL document CHEMBL4354883, “Design, Synthesis, and Biological Evaluation of HSP90 Inhibitor-SN38 Conjugates for Targeted Drug Accumulation” (J Med Chem, 2020)
